These results are taken from patent US7402579B2, “Quinobenzoxazine analogs and compositions” (Cylene Pharmaceuticals, Inc., priority 2005, dated 2008).

In test [1] the target is c-Myc template DNA (quadruplex). Briefly: Quadruplex binding assay (STOP assay, Taq polymerase arrest, capillary electrophoresis). To be noted: concentration at which 50% of the DNA was arrested. The test is classed as biochemical. The protocol: Generally, a 5′-fluorescent-labeled (FAM) primer (P45, 15 nM) was mixed with template DNA (15 nM) in a Tris-HCL buffer (15 mM Tris, pH 7.5) containing 10 mM MgCl2, 0.1 mM EDTA and 0.1 mM mixed deoxynucleotide triphosphates (dNTP's). In one example, the FAM-P45 primer (5′-6FAM-[…] CAATT-3′) (SEQ ID NO. 17) and the c-Myc template DNA (5′-[…] […] […]-3′) (SEQ ID NO. 18) were synthesized and HPLC purified by Applied Biosystems. The mixture was denatured at 95° C. for 5 minutes and, after cooling down to room temperature, was incubated at 37° C. for 15 minutes.
After cooling down to room temperature, 1 mM […] and the test compound (various concentrations) were added and the mixture incubated for 15 minutes at room temperature. The primer extension was performed by adding 10 mM KCl and Taq DNA Polymerase (2.5 U/reaction, Promega) and incubating at 70° C. for 30 minutes. The reaction was stopped by adding 1 μl of the reaction mixture to 10 μl Hi-Di Formamide mixed and 0.25 μl LIZ120 size standard. Hi-Di Formamide and LIZ120 size standard were purchased from Applied Biosystems. The partially extended quadruplex arrest product was between 61 or 62 bases long and the full-length extended product was 99 bases long. The products were separated and analyzed using capillary electrophoresis. Capillary electrophoresis was performed using an ABI PRISM 3100-Avant Genetic Analyzer. The assay was performed using compounds described above, and μM concentrations reported in Table 1 (Tables 1A-1F) are concentrations at which 50% of the DNA was arrested in the assay (i.e., the ratio of shorter partially extended DNA (arrested DNA) to full-length extended DNA is 1:1).
Stop Assays. Stop assays are high throughput, first-pass screens for detecting drugs that bind to and stabilize the target G-quadruplex. Generally, DNA template oligonucleotide is created, which contains the nucleotide sequence of the “target” quadruplex against which drug screening is desired. A fluorescently labeled primer DNA is then annealed to the 3′ end of the template DNA. A DNA polymerase such as Taq polymerase is then introduced to synthesize a complementary strand of DNA by extending from the fluorescently labeled primer. When the progress of the Taq polymerase is unhindered, it synthesizes a full-length copy of the template. […] If, however, the test drug selectively binds to and stabilizes the quadruplex, the progress of polymerase arrests only at the quadruplex, and a characteristic “Stop Product” is synthesized.
These products are visualized by capillary electrophoresis.

For the next test, the system named is HCT-116 cells. Nature of the test: MTS cell proliferation/cytotoxicity assay, HCT-116. The test is classed as cell-based. The note with it: Homo sapiens. The protocol:
(§1) The antiproliferative effects of the present compounds may be tested using a cell proliferation and/or cytotoxicity assay, following protocols described below.
(§2) MTS assays. Antiproliferative effects of anticancer drugs are tested by the CellTiter 96 AQueous assay (Promega, Wis.), which is a colorimetric assay for determining the number of viable cells. (See, e.g., Wang, L., et al., Methods Cell Sci (1996) 18:249-255).
(§3) Generally, cells (2,000 to 5,000 cells/well) are seeded on 96 well flat bottom plates (Corning, N.Y.) in 100 μl of culture medium without any anticancer drug on day 0, and the culture medium is exchanged for that contained anticancer drugs at various concentrations on day 1. After incubation for 3 days under normal growth conditions (on day 4), the monolayers are washed once in PBS, and the medium is switched to 100 μl of PBS in each of the 96 well plate. After mixing MTS and PMS at the ratio of 20:1, 20 μl of MTS/PMS solution is added to each of the 96 well plate and incubated for 4 hours in a humidified atmosphere of 5% CO2 at 37° C. The absorbance was read at 490 nm using FLUOstar Galaxy 96 well plate reader (BMG Labtechnologies, Germany).

The next test has as its system HeLa cells. Nature of the test: MTS cell proliferation/cytotoxicity assay, Hela. The test is classed as cell-based. The note with it: Homo sapiens. The protocol: as §1
Cell culture. Human cervical epithelial cells (HeLa cells) are obtained from American Type Culture Collection (Manassas, Va.). Cells are grown in Eagle's minimum essential medium (MEM, Hyclone, Utah) supplemented with 2 mM Glutamine, 0.1 mM nonessential amino acid, 1 mM Na Pyruvate, 1.5 g/L NaHCO3, 50 mg/L gentamicin, and 10% fetal bovine serum (Hyclone, USA) in a humidified atmosphere of 5% CO2 at 37° C.
as §2, §3

Like-named read-outs stand apart in the source and are kept apart here.

For `CN1CCCC1CCNC(=O)c1cn2c3c(cc(SCCc4cnccn4)cc3c1=O)Oc1ccccc1-2` (stereo not drawn), the IC50 in test [1] (Table 1B, read-out: STOP IC50) was 10 µM; with HCT-116 cells (Table 1B), 3.8 µM; with HeLa cells (Table 1B), 3 µM.

`Cc1cc(CSc2cc3c4c(c2)c(=O)c(C(=O)NCCC2CCCN2C)cn4-c2cc4ccccc4cc2O3)no1` (stereo not drawn): the IC50 in test [1] (Table 1B, read-out: STOP IC50) is 5.4 µM; with HCT-116 cells (Table 1B) it was 2.9 µM; in the test with HeLa cells (Table 1B), 2.3 µM.

As to `CC(=O)N1CCN(c2cc3c(=O)c(C(=O)NCCN4CCCC4)cn4c3c(c2F)Oc2cc(Cl)ccc2-4)CC1`, in test [1] (Table 1C, read-out: STOP IC50), the IC50 was found to be 6 µM.

Turning to `N#Cc1ccc2c(c1)-n1cc(C(=O)NCCN3CCCC3)c(=O)c3cc(F)c(N4CCC(c5cnccn5)C4)c(c31)O2` (stereo not drawn), the IC50 amounted to 5 µM in test [1] (Table 1A, read-out: STOP IC50); 0.031 µM in the test on HCT-116 cells (Table 1A); 0.21 µM in the test on HeLa cells (Table 1A).

As for `CN1CCCC1CCNC(=O)c1cn2c3c(c(N4CCC(c5cnccn5)C4)c(F)cc3c1=O)Oc1ccc(C#N)cc1-2` (stereo not drawn), the IC50 came to 0.4 µM in the test on HCT-116 cells (Table 1A) and 1.2 µM in the test on HeLa cells (Table 1A).

In the case of `CN1CCCC1CCNC(=O)c1cn2c3c(c(N4CCC(c5cnccn5)C4)c(F)cc3c1=O)Oc1ccc(C(N)=O)cc1-2` (stereo not drawn), the IC50 came to 3.6 µM in the test with HCT-116 cells (Table 1A) and 11 µM with HeLa cells (Table 1A).

Regarding `O=C(NCCN1CCCC1)c1cn2c3c(cc(SCCc4cnccn4)cc3c1=O)Oc1cc3ccccc3cc1-2`, the IC50 in test [1] (Table 1B, read-out: STOP IC50) worked out at 3.9 µM; in the test with HCT-116 cells (Table 1B), 2.8 µM; with HeLa cells (Table 1B), 0.28 µM.

On to `CN1CCCC1CCNC(=O)c1cn2c3c(cc(SCc4ccccn4)cc3c1=O)Oc1cc3ccccc3cc1-2` (stereo not drawn), for which the IC50 turned out to be 3.8 µM in test [1] (Table 1B, read-out: STOP IC50); 3.1 µM in the test with HCT-116 cells (Table 1B); 2.5 µM with HeLa cells (Table 1B).

For `CN1CCCC1CCNC(=O)c1cn2c3c(cc(SCc4ccccc4)cc3c1=O)Oc1cc3ccccc3cc1-2` (stereo not drawn), the IC50 in test [1] (Table 1B, read-out: STOP IC50) came out at 14 µM; in the test with HCT-116 cells (Table 1B) it was 3.9 µM; in the test on HeLa cells (Table 1B) it was 5.2 µM.

With `CC(C)N1CCN(c2c(F)cc3c(=O)c(C(=O)NCCN4CCCC4)cn4c3c2Oc2ccc(C#N)cc2-4)CC1`, the IC50 was 10 µM in test [1] (Table 1A, read-out: STOP IC50); 0.03 µM with HCT-116 cells (Table 1A); 0.04 µM in the test with HeLa cells (Table 1A).

As to `N#Cc1ccc2c(c1)-n1cc(C(=O)NCCN3CCOCC3)c(=O)c3cc(F)c(N4CCC(N)C4)c(c31)O2` (stereo not drawn), the IC50 with HCT-116 cells (Table 1A) came out at 0.4 µM; in the test on HeLa cells (Table 1A) it was 0.68 µM.

For `CN1CCCC1CCNC(=O)c1cn2c3c(cc(SCCc4cnccn4)cc3c1=O)Oc1cc3ccccc3cc1-2` (stereo not drawn), the IC50 in test [1] (Table 1B, read-out: STOP IC50) came out at 3.4 µM; with HCT-116 cells (Table 1B), 10 µM; with HeLa cells (Table 1B) it was 1.8 µM.

As for `CC1CCN(C(=O)c2cn3c4c(c(NCCN5CCOCC5)c(F)cc4c2=O)Oc2ccccc2-3)CC1` [Example 55], the IC50 in test [1] (Table 1E, read-out: STOP Data) is more than 15 µM.

As for `CN1CCCC1CCNC(=O)c1cn2c3c(cc(SCc4ccncc4)cc3c1=O)Oc1cc3ccccc3cc1-2` (stereo not drawn), the IC50 turned out to be 2.9 µM in test [1] (Table 1B, read-out: STOP IC50); 4.2 µM in the test on HCT-116 cells (Table 1B); 4.1 µM in the test on HeLa cells (Table 1B).

Consider `CN1CCCC1CCNC(=O)c1cn2c3c(c(N4CCC(c5cnccn5)C4)c(F)cc3c1=O)Oc1ccccc1-2` (stereo not drawn) [Example 81], for which the IC50 in test [1] (Table 1E, read-out: STOP Data) came out at 5.7 µM.
